What was measured:
Assay type in all cases: cell-based
[1] = system: Tet1 deficient mouse BM progenitor cells transduced with MLL-AF9; experiment: Viability of MLL-AF9-transduced Tet1 deficient BM progenitor cells; conditions: 48 hrs; 200 nM (FIG. 13)
Procedure: FIG. 5. […] Gene expression levels are shown. […] ChIP-qPCR assay was carried out 48 hrs after drug treatment. Enrichment of STAT3, STAT5, or IgG at the TET1 promoter region and other regions are shown. […] BM progenitor cells of wild-type or Tet1^−/− mice were retrovirally transduced with MLL-AF9. […] Relative cell viabilities are shown. (m) Cre-Tet1f mouse BM progenitor cells were retrovirally transduced with MLL-AF9. […] Relative cell viability is shown. (n-o) THP-1 (n) and MONOMAC-6 (o) cells were infected with lentivirus of pLenti-puro vector-based Tet1 construct. […] Relative cell viability is shown. *, P<0.05; **, P<0.01, two-tailed t-test. Error bar indicates SD of triplicate experiments.
FIG. 13. […] (a-d) BM progenitor cells of wild-type or Tet1^−/− mice were retrovirally transduced with MLL-AF9. Infected cells were treated with 200 nM JAK/STAT inhibitors individually, including Pacritinib (a), KW-2449 (b), Stattic (c) or sc-355979 (d), for 48 hrs. Relative cell viabilities are shown. (e) Cre-Tet1^fl/fl mouse BM progenitor cells were retrovirally transduced with MLL-AF9. […] Cell viabilities (normalized to non-induced Cre-Tet1^fl/fl treated with DMSO control) are shown. ‘K, P<0.05; ‘K‘K, P<0.01, two-tailed t-test
siRNAs were transfected into MONOMAC-6 cells with Cell Line Nucleofector Kit V following program T-037, using the Amaxa Nucleofector Technology (Amaxa Biosystems, Berlin, Germany). Experiments were performed 48 h after transfection. Retrovirus infection of mouse BM progenitor cells were conducted as described previously with some modifications. Briefly, retrovirus vectors were co-transfected with pCL-Eco packaging vector (IMGENEX, San Diego, Calif.) into HEK293T cells using Effectene Transfection Reagent (Qiagen, Valencia, Calif.) to produce retrovirus. BM cells were harvested from a cohort of 4- to 6-week-old C57BL/6, Tet1^−/−, or Cre-Tet1^fl/fl donor mice after five days of 5-fluorouracil (5-FU) treatment, and primitive hematopoietic progenitor cells were enriched with Mouse Lineage Cell Depletion Kit (Miltenyi Biotec Inc., Auburn, Calif.). An aliquot of enriched hematopoietic progenitor cells was added to retroviral supernatant together with polybrene in cell culture plates, which were centrifuged at 2,000 g for 2 hours at 32° C. (i.e., spinoculation) and then the medium was replaced with fresh media and incubated for 20 hours at 37° C. Next day, the same procedure was repeated once. Infected cells were grown in RPMI 1640 medium containing 10 ng/mL murine recombinant IL-3, 10 ng/mL IL-6, 100 ng/mL murine recombinant SCF (R&D Systems, Minneapolis, Minn.), along with 1.0 mg/ml of G418. Experiments were performed 7 days after infection.
(§1) These experiments were conducted as described previously (Jiang, X., et al., Blockade of miR-150 Maturation by MLL-Fusion/MYC/LIN-28 Is Required for MLL-Associated Leukemia, Cancer Cell 22:524-35 (2012); Li, Z., et al., miR-196b directly targets both HOXA9/MEIS1 oncogenes and FAS tumour suppressor in MLL-rearranged leukaemia, Nat Commun 2:688 (2012)) with ApoLive-Glo Multiplex Assay Kit, or CellTiter 96 AQueous Non-Radioactive Cell Proliferation Assay Kit (Promega, Madison, Wis.).

[2] = system: TET1-high AML (including MONOMAC-6, THP-1, and KASUMI-1) cells; experiment: MTS viability of AML cell lines versus JAK/STAT inhibitors; conditions: MTS 48 hrs; maximum concentration tested 500 nM
Procedure: FIG. 4. […] (a) Structures of NSC-370284 and UC-514321. […] Cells were treated with drugs at indicated doses. Cell viability was detected by MTS 48 hrs post-treatment. Error bar indicates SD of triplicate experiments. […] Secondary BMT recipient mice were transplanted with primary leukemic BM cells with MLL-AF9 (f) or AML-ETO9a (g). […] Kaplan-Meier curves are shown. The P values were determined by log-rank test. […] Secondary BMT recipient mice were transplanted with primary leukemic BM cells with MLL-AF10 or FLT3-ITD/NPM1^mut. […] Kaplan-Meier curves are shown. The P values were determined by log-rank test. (j) Wright-Giemsa staining of mouse PB and BM, or H&E staining of mouse spleen and liver of MLL-AF9 AML secondary BMT recipients with or without drug treatment.
as §1

[3] = system: THP-1 NSC-370284-resistant clones; experiment: Viability of THP-1 NSC-370284-resistant clones with chemotherapy drugs; conditions: 3 resistant clones; 48 hours
Procedure: FIG. 6. […] (a) NSC-370284-resistant AML cells are sensitive to DNR. Three of the THP-1 NSC-370284-resistant clones (DRC-1-3) and the parental control were treated with DNR at indicated doses. Cell viability was tested 48 hours after the treatments. […] Relative cell viability at 48 hours post drug treatment is shown. Error bar indicates SD of triplicate experiments. (d) Synergistic therapy of NSC-370284 or UC-514321 in combination with standard chemotherapy. Secondary BMT recipient mice were transplanted with primary MLL-AF9 leukemic BM cells. […] 5-9 mice were included in each group. Kaplan-Meier curves are shown. The P values were determined by log-rank test. (e) Wright-Giemsa staining of mouse PB and BM, or H&E staining of mouse spleen and liver of MLL-AF9 secondary BMT recipients treated with “5+3” alone, or combinational therapy.
Long-term treatment with a drug may cause drug resistance in patients, and thus combinatory therapy is often required. To treat AML cells that have gained resistance to inhibitors, the effects of a set of first-line AML chemotherapy drugs including daunorubicin (DNR), cytarabine (AraC), all-trans retinoic acid (ATRA), azacytidine (AZA), and decitabine (DAC) on the viability of parental THP-1 cells and three NSC-370284-resistant clones were investigated (FIG. 6a and FIG. 18a-d).

## O=[N+]([O-])c1ccc2c(c1)S(=O)(=O)C=C2 [Stattic, reference compound]
[1]
  difference in cell viability between wild-type and Tet1 deficient cells: no significant differences
[2]
  inhibitory effects on the viability of these AML cells: did not show significant inhibitory effects

## O=C(NN=Cc1coc2ccccc2c1=O)c1cccnc1 [sc-355979, reference compound]
[1]
  difference in cell viability between wild-type and Tet1 deficient cells: no significant differences
[2]
  inhibitory effects on the viability of these AML cells: did not show significant inhibitory effects

## C1=C/COCc2cc(ccc2OCCN2CCCC2)Nc2nccc(n2)-c2cccc(c2)COC/1 [Pacritinib, reference compound]
[1]
  difference in cell viability between wild-type and Tet1 deficient cells: no significant differences

## O=C(c1ccc(/C=C/c2n[nH]c3ccccc23)cc1)N1CCNCC1 [KW-2449, reference compound]
[1]
  difference in cell viability between wild-type and Tet1 deficient cells: no significant differences

## COc1cccc2c1C(=O)c1c(O)c3c(c(O)c1C2=O)C[C@@](O)(C(C)=O)C[C@@H]3O[C@H]1C[C@H](N)[C@H](O)[C@H](C)O1 [DNR, daunorubicin]
[3]
  sensitivity of drug-resistant clones relative to parental THP-1 control: much more sensitive

— patent US11311513B2, “Methods, agents, and compositions for the treatment of acute myeloid leukemia” (UNIVERSITY OF CINCINNATI, priority 2017, dated 2022)
